This test has as its target T1, abc isoform of human TMEM16A channel expressed in CHO cells (Homo sapiens, UniProt Q5XXA6, DEL476-501).
T1 construct: expressed in transfected cells; host or cells: CHO cells, doxycycline-inducible expression under Blasticidin/Zeocin selection
T1 sequence (Q5XXA6 with tags, fused parts or gaps isoform Q5XXA6-5 DEL539-564): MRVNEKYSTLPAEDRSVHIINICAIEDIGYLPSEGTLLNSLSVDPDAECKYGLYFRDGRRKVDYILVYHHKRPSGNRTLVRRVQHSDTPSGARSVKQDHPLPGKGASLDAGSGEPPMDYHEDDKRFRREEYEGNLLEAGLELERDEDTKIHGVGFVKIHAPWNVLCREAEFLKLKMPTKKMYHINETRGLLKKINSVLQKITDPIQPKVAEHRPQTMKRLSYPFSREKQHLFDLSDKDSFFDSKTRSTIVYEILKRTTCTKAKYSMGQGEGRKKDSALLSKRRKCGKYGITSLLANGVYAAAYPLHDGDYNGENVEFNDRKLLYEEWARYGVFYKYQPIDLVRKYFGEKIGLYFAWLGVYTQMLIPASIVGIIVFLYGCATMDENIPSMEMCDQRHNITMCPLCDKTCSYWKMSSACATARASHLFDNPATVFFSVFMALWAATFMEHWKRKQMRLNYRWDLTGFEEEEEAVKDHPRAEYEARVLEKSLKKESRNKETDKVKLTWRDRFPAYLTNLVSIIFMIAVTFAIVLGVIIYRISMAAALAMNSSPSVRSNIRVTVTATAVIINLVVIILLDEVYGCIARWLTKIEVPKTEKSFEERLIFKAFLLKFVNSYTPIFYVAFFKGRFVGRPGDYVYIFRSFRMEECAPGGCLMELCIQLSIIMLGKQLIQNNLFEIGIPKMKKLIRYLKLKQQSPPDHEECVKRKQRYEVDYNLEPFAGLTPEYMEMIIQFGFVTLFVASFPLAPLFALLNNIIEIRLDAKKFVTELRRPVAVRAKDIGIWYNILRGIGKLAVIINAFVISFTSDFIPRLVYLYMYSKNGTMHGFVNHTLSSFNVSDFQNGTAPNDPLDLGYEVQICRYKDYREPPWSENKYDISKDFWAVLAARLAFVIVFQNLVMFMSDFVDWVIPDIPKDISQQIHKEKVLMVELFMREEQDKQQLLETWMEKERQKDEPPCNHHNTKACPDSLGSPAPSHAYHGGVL
The test is described as follows: Automated patch clamping (QPatch) assay to measure TMEM16A activity in whole-cell. The class given is cell-based. Particulars: for EC50: CHO cells expressing human TMEM16A (abc), whole-cell automated patch clamp, Hill fit, read-out: TMEM16A QPATCH assay EC50 V3 EC50; for Emax: CHO, maximum current at highest dose relative to reference potentiator at maximal concentration (upper limit) and vehicle (lower limit), read-out: TMEM16A QPATCH assay EC50 V3 Assay Window (% TMEM16A max activation). Put shortly: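 CHO cells with doxycycline-induced (1 μg/mL, 18-24 h) human TMEM16A abc isoform; QPatch whole-cell recording, hold −70 mV, step +70 mV 1500 ms, then −90 to +70 mV ramp. Compounds in 0.3% DMSO; EC50 by Hill fit; % max activation relative to vehicle baseline and reference potentiator maximum.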

Where a name gives a salt, the structure may show the parent alone.

Consider `CCOC(=O)[C@@H](NC(=O)c1cnc(-c2cccc(-c3cc(C(=O)NC(CC)CC)n[nH]3)c2)o1)c1ccccc1` [Example 1.36, (S)-Ethyl 2-(2-(3-(3-(Pentan-3-Ylcarbamoyl)-1 H-Pyrazol-5-Yl)Phenyl)Oxazole-5-Carboxamido)-2-Phenylacetate], for which the EC50 – broadly, the midpoint of the concentration-response curve – stood at 1100 nM and the Emax amounted to 102%.

`CCOC(=O)C1(C)CCN(C(=O)c2cc(-c3cccc(-c4ncc(C(=O)NC(CC)CC)o4)c3)[nH]n2)C1` (stereo not drawn) [Example 3.20, Ethyl 3-Methyl-1-(5-(3-(5-(Pentan-3-Ylcarbamoyl)Oxazol-2-Yl)Phenyl)-1H-Pyrazole-3-Carbonyl)Pyrrolidine-3-Carboxylate]: the EC50 was 450 nM and the Emax was determined as 82%.

For `CCC(CC)NC(=O)c1cc(-c2cccc(-c3ncc(C(=O)NCc4ccc(F)cc4)o3)c2)[nH]n1` [Example 1.17, N-(4-Fluorobenzyl)-2-(3-(3-(Pentan-3-Ylcarbamoyl)-1H-Pyrazol-5-yl)Phenyl)Oxazole-5-Carboxamide], the EC50 was 580 nM and the Emax came to 94%.

`CCOC(=O)[C@H](Cc1ccccc1)NC(=O)c1cc(-c2cccc(-c3ncc(C(=O)NC(CC)CC)o3)c2)[nH]n1` [Example 3.66, (S)-Ethyl 2-(5-(3-(5-(Pentan-3-Ylcarbamoylyl-Carbamoyl)Oxazol-2-Yl)Phenyl)-1H-Pyrazole-3-Carboxamido)-3-Phenylpropanoate Trifluoroacetate]: the EC50 was determined as 140 nM and the Emax came to 80%.

As to `CCC(CC)NC(=O)c1cc(-c2cccc(-c3ncc(C(=O)NCc4c(F)cccc4F)o3)c2)[nH]n1` [Example 1.43, N-(2,6-Difluorobenzyl)-2-(3-(3-(Pentan-3-Ylcarbamoyl)-1H-Pyrazol-5-yl)Phenyl)Oxazole-5-Carboxamide], the EC50 came out at 430 nM and the Emax worked out at 70%.

Turning to `CCOC(=O)[C@@H](NC(=O)c1cnc(-c2cccc(-c3cc(C(=O)N[C@@H](C)C4CC4)n(CCO)n3)c2)o1)C(C)C` [Example 4.2, (S)-Ethyl 2-(2-(3-(5-(((S)-1-Cyclopropylethyl)Carbamoyl)-1-(2-Hydroxyethyl)-1H-Pyrazol-3-Yl)Phenyl)Oxazole-5-Carboxamido)-3-Methylbutanoate], the EC50 came out at 680 nM and the Emax came to 125%.

For `CCC(CC)NC(=O)c1cnc(-c2cccc(-c3cc(C(=O)NC(COC)C4CC4)n[nH]3)c2)o1` (stereo not drawn) [Example 3.1, 2-(3-(3-((1-Cyclopropyl-2-Methoxyethyl)Carbamoyl)-1H-Pyrazol-5-Yl)Phenyl)-N-(Pentan-3-Yl)Oxazole-5-Carboxamide], the EC50 was 300 nM and the Emax was 140%.

Consider `CCOC(=O)[C@@H](NC(=O)c1cnc(-c2cccc(-c3cc(C(=O)N[C@@H](CC(C)C)C(=O)OC)n[nH]3)c2)o1)C(C)C` [Example 2.1, (S)-Methyl 2-(5-(3-(5-(((S)-1-Ethoxy-3-Methyl-1-Oxobutan-2-yl)Carbamoyl)Oxazol-2-Yl)Phenyl)-1H-Pyrazole-3-Carboxamido)-4-Methylpentanoate], for which the EC50 stood at 30 nM and the Emax was determined as 83%.

For the compound `CCC(CC)NC(=O)c1cc(-c2cccc(-c3ncc(C(=O)N[C@@H](C)C4CC4)o3)c2)[nH]n1` [Example 1.6, (S)-N-(1-Cyclopropylethyl)-2-(3-(3-(Pentan-3-Ylcarbamoyl)-1H-Pyrazol-5-Yl)Phenyl)Oxazole-5-Carboxamide], the EC50 was 130 nM and the Emax is 61%.

With `CCC(CC)NC(=O)c1cnc(-c2cccc(-c3cc(C(=O)N[C@H](C)c4ccccc4)n[nH]3)c2)o1` [Example 3.51, (R)-N-(Pentan-3-Yl)-2-(3-(3-((1-Phenylethyl)Carbamoyl)-1H-Pyrazol-5-Yl)Phenyl)Oxazole-5-Carboxamide], the EC50 stood at 110 nM and the Emax was determined as 68%.

Turning to `CCC(CC)NC(=O)c1cc(-c2cccc(-c3ncc(C(=O)NCC4CCCCO4)o3)c2)[nH]n1` (stereo not drawn) [Example 1.18, 2-(3-(3-(Pentan-3-Ylcarbamoyl)-1H-Pyrazol-5-Yl)Phenyl)-N-((Tetrahydro-2H-Pyran-2-Yl)Methyl)Oxazole-5-Carboxamide], the EC50 was 180 nM and the Emax was 39%.

With `COC(=O)[C@H](CC1CCCCC1)NC(=O)c1cnc(-c2cccc(-c3cc(C(=O)NC(C4CC4)C4CC4)n[nH]3)c2)o1` [Example 1.4, (S)-Methyl 3-Cyclohexyl-2-(2-(3-(3-((Dicyclopropylmethyl)Carbamoyl)-1H-Pyrazol-5-Yl)Phenyl)Oxazole-5-Carboxamido)Propanoate], the EC50 was 910 nM and the Emax was 103%.

On to `CCOC(=O)[C@H](C)NC(=O)c1cc(-c2cccc(-c3ncc(C(=O)NC(CC)CC)o3)c2)[nH]n1` [Example 3.63, (S)-Ethyl 2-(5-(3-(5-(Pentan-3-Ylcarbamoyl)Oxazol-2-Yl)Phenyl)-1H-Pyrazole-3-Carboxamido)Propanoate Trifluoroacetate], for which the EC50 amounted to 860 nM and the Emax was determined as 72%.

Turning to `CCOC(=O)[C@H](NC(=O)c1cnc(-c2cccc(-c3cc(C(=O)NC(CC)CC)n[nH]3)c2)o1)c1ccccc1` [Example 1.28, (R)-Ethyl 2-(2-(3-(3-(Pentan-3-Ylcarbamoyl)-1 H-Pyrazol-5-yl)Phenyl)Oxazole-5-Carboxamido)-2-Phenylacetate], the EC50 was determined as 610 nM and the Emax amounted to 84%.

As for `CCC(CC)NC(=O)c1cc(-c2cccc(-c3ncc(C(=O)NC(CC)CC)o3)c2)n[nH]1` [Example 1.20, N-(Pentan-3-Yl)-2-(3-(5-(Pentan-3-Ylcarbamoyl)-1H-Pyrazol-3-yl)Phenyl)Oxazole-5-Carboxamide], the EC50 turned out to be 290 nM and the Emax was 112%.

As for `CCC(CC)NC(=O)c1cnc(-c2cccc(-c3cc(C(=O)NC4(C5CC5)CC4)n[nH]3)c2)o1` [Example 3.6, 2-(3-(3-([1,1′-Bi(Cyclopropan)]-1-Ylcarbamoyl)-1H-Pyrazol-5-Yl)Phenyl)-N-(Pentan-3-Yl)Oxazole-5-Carboxamide], the EC50 amounted to 170 nM and the Emax is 122%.

As to `C[C@@H](NC(=O)c1nnc(-c2cccc(-c3ncc(C(=O)NC(C4CC4)C4CC4)o3)c2)[nH]1)C1CC1` [Example 13.1, (R)-2-(3-(5-((1-Cyclopropylethyl)Carbamoyl)-4H-1,2,4-Triazol-3-Yl)Phenyl)-N-(Dicyclopropylmethyl)Oxazole-5-Carboxamide], the EC50 was 110 nM and the Emax was 88%.

`CCC(CC)NC(=O)c1cc(-c2cccc(-c3ncc(C(=O)N[C@@H](C(=O)OC)c4ccccc4)o3)c2)[nH]n1` [Example 1.39, (R)-Methyl 2-(2-(3-(3-(Pentan-3-Ylcarbamoyl)-1H-Pyrazol-5-yl)Phenyl)Oxazole-5-Carboxamido)-2-Phenylacetate]: the EC50 worked out at 880 nM and the Emax turned out to be 66%.

As to `CCC(CC)NC(=O)c1cc(-c2cccc(-c3ncc(C(=O)N[C@H](C)C4CC4)o3)c2)[nH]n1` [Example 1.40, (R)-N-(1-Cyclopropylethyl)-2-(3-(5-(Pentan-3-Ylcarbamoyl)-1H-Pyrazol-3-yl)Phenyl)Oxazole-5-Carboxamide], the EC50 is 160 nM and the Emax is 93%.

Take `CCC(CC)NC(=O)c1cnc(-c2cccc(-c3cc(C(=O)N4CCC(C(=O)OC)C4)n[nH]3)c2)o1` (stereo not drawn) [Example 3.30, Methyl 1-(5-(3-(5-(Pentan-3-Ylcarbamoyl)Oxazol-2-Yl)Phenyl)-1H-Pyrazole-3-Carbonyl)Pyrrolidine-3-Carboxylate]: the EC50 was found to be 750 nM and the Emax was 90%.

For the compound `CCOC(=O)[C@@H](NC(=O)c1cnc(-c2cccc(-c3nnc(C(=O)N[C@@H](C)C4CC4)[nH]3)c2)o1)C(C)C` [Example 12.2, (S)-Ethyl 2-(2-(3-(5-(((S)-1-Cyclopropylethyl)Carbamoyl)-4H-1,2,4-Triazol-3-Yl)Phenyl)Oxazole-5-Carboxamido)-3-Methylbutanoate], the EC50 stood at 50 nM and the Emax turned out to be 112%.

Source of the values: patent US20220306617A1, “SUBSTITUTED 1,3-PHENYL HETEROARYL DERIVATIVES AND THEIR USE IN THE TREATMENT OF DISEASE” (NOVARTIS AG, priority 2019, published 2022).
